Assay results taken from patent US20230312471A1 (priority 2020, published 2023).
Read-outs that look alike come from different tables or passages of the source.

Columns and labels:
Experiment in all cases: biochemical
3CL^pro = 3CL^pro (Severe acute respiratory syndrome coronavirus 2, UniProt P0DTD1); format: binding, SARS-CoV-2
PL^pro [1] = target: T1, PL^pro (Severe acute respiratory syndrome coronavirus 2, UniProt P0DTD1); format: biochemical, SARS-CoV-2
PL^pro [2] = target: T1, PL^pro; format: binding, SARS-CoV-2
[3] = read-out: IC50, inhibition of labelling of 3CL^pro by compound of formula (13)

## O=C(/C=C/c1ccc(O)c2oc(-c3ccc(O)c(O)c3)cc12)O[C@H](Cc1ccc(O)c(O)c1)C(=O)O [salvianolic acid C]
3CL^pro; [3]
  IC50: 91 µM

## O=C(/C=C/c1ccc(O)c(O)c1)O[C@H](Cc1ccc(O)c(O)c1)C(=O)O [rosmarinic acid]
3CL^pro
  IC50: 10 µM

## O=C(/C=C/c1ccc(O)c2c1[C@H](C(=O)O[C@H](Cc1ccc(O)c(O)c1)C(=O)O)[C@@H](c1ccc(O)c(O)c1)O2)O[C@H](Cc1ccc(O)c(O)c1)C(=O)O [Compound M26, salvianolic acid B]
3CL^pro; [3]
  IC50: 12 µM

## COc1cc(/C=C/C(=O)CC(=O)/C=C/c2ccc(O)c(OC)c2)ccc1O [Compound M03, curcumin]
PL^pro [1]
  Inhibition of enzyme activity of PL^pro (in words): inhibited enzyme activity
PL^pro [2]
  Inhibition of PL^pro labelling (in words): almost completely inhibited

## O=C(/C=C/c1ccc(O)c(O)c1/C=C/c1ccc(O)c(O)c1)O[C@H](Cc1ccc(O)c(O)c1)C(=O)O [salvianolic acid A]
3CL^pro; [3]
  IC50: 4.8 µM

## O=C(/C=C/c1ccc(O)c2c1[C@H](C(=O)O)[C@@H](c1ccc(O)c(O)c1)O2)O[C@H](Cc1ccc(O)c(O)c1)C(=O)O [lithospermic acid]
3CL^pro
  IC50: 32 µM

## S=C=NCCc1ccccc1 [Compound X05, Phenethyl isothiocyanate]
3CL^pro
  IC50: 43 µM
  Inhibition of 3CL^pro labelling (in words): incomplete inhibition
PL^pro [1]
  IC50: 44 µM
  Inhibition of enzyme activity of PL^pro (in words): inhibited enzyme activity
PL^pro [2]
  IC50: 81 µM
  Inhibition of PL^pro labelling (in words): incomplete inhibition
